Source: US20120329787A1, “FUNGICIDAL PYRANONES AND OXAZINONES” (E.I. DU PONT DE NEMOURS AND COMPANY, priority 2011, published 2012)
Marks after values point to notes of the source that are not given here.

What was measured:
Type in all cases: in vivo
Phytophthora infestans = details: 200 ppm test suspension; tomato seedlings
[1] = tested on: Puccinia recondita f. sp. tritici; assay: Test H: wheat leaf rust, spray on wheat seedlings the day before inoculation; details: 200 ppm test suspension, sprayed before inoculation
How it was run: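 Wheat seedlings sprayed to run-off with compound suspensions (acetone/water with surfactant; 200 ppm ≈ 500 g/ha, or 40 ppm), inoculated next day with rust spores. Plants kept 24 h in saturated atmosphere at 20 °C, then 6 days in a 20 °C growth chamber before visual disease rating.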

Rhizoctonia solani = assay: Test D: turf brown patch, spray on creeping bent grass seedlings the day before inoculation; details: 200 ppm test suspension
Excerpt: General protocol for preparing test suspensions for Tests A-I: the test compounds were first dissolved in acetone in an amount equal to 3% of the final volume and then suspended at the desired concentration (in ppm) in acetone and purified water (50/50 mix by volume) containing 250 ppm of the surfactant Trem® 014 (polyhydric alcohol esters). The resulting test suspensions were then used in Tests A-I. Spraying a 200 ppm test suspension to the point of run-off on the test plants was the equivalent of a rate of 500 g/ha. […] (An asterisk “*” next to the rating value indicates a 40 ppm test suspension was used.) The test suspension was sprayed to the point of run-off on creeping bent grass (Agrostis sp.) seedlings. The following day, the seedlings were inoculated with a bran and mycelial slurry of Rhizoctonia solani (the causal agent of turf brown patch) and incubated in a saturated atmosphere at 27° C. for 48 h, and then moved to a growth chamber at 27° C. for 3 days, after which time disease ratings were made. […] A dash (-) indicates no test results. All results are for 200 ppm except where followed by an asterisk “*”, which indicates a 40 ppm.

Botrytis cinerea = assay: Test A: tomato Botrytis, spray on tomato seedlings the day before inoculation; details: 200 ppm test suspension
How it was run: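 Tomato seedlings sprayed to run-off with compound suspension (200 ppm, ≈500 g/ha; some at 40 ppm) in acetone/water with 250 ppm Trem 014, inoculated next day with Botrytis cinerea spores. Held 48 h saturated at 20 °C, then 3 days at 24 °C; disease rated visually.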

Septoria tritici = assay: Test F: wheat leaf blotch, spray on wheat seedlings the day before inoculation; details: 200 ppm test suspension
How it was run: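 Wheat seedlings sprayed to run-off with 200 ppm (≈500 g/ha) or 40 ppm suspension in acetone/water with 250 ppm Trem 014. Next day inoculated with Septoria tritici spores, held 48 h saturated at 24° C, then 19 days at 20° C before visual disease rating.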

Septoria nodorum = assay: Test E: Septoria glume blotch, spray on wheat seedlings the day before inoculation; details: 200 ppm test suspension
How it was run: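 Compounds in acetone/water (50/50) with 250 ppm Trem 014 surfactant, sprayed to run-off on wheat seedlings the day before Septoria nodorum inoculation. Tested at 200 ppm (equivalent to 500 g/ha) unless marked 40 ppm.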

[2] = tested on: Erysiphe graminis f. sp. tritici; assay: Test I: wheat powdery mildew, spray on wheat seedlings the day before inoculation; details: 200 ppm test suspension
How it was run: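 Wheat seedlings sprayed to run-off with compound at 200 ppm (40 ppm where marked; 200 ppm ≈ 500 g/ha) in acetone/water with 250 ppm surfactant. Inoculated next day with E. graminis spore dust; visual disease rating after 7 days at 20° C.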

Alternaria solani = assay: Test B: tomato early blight, spray on tomato seedlings the day before inoculation
How it was run: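 Tomato seedlings sprayed to run-off with 200 ppm suspension (40 ppm where asterisked), inoculated next day with Alternaria solani spores. Kept 48 h at 27 °C in saturated atmosphere, then 5 days at 20 °C before visual disease rating.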

[3] = tested on: Puccinia recondita f. sp. tritici; assay: Test G: wheat leaf rust, spray on wheat seedlings after inoculation (curative); details: 200 ppm test suspension, sprayed after inoculation
How it was run: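 Curative test: wheat seedlings inoculated with P. recondita spores, held 24 h saturated at 20 °C then 2 days at 20 °C, then sprayed to run-off with compound suspension (200 ppm ≈ 500 g/ha; asterisk = 40 ppm) in acetone/water with 250 ppm surfactant. Visual disease rating after 4 further days at 20 °C.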

Row | Structure (SMILES) | Test C rating (100 = 100% disease control, 0 = no disease control) (Phytophthora infestans) | Test H rating (100 = 100% disease control, 0 = no disease control) [1] | Test D rating (100 = 100% disease control, 0 = no disease control) (Rhizoctonia solani) | Test A rating (100 = 100% disease control, 0 = no disease control) (Botrytis cinerea) | Test F rating (100 = 100% disease control, 0 = no disease control) (Septoria tritici) | Test E rating (100 = 100% disease control, 0 = no disease control) (Septoria nodorum) | Test I rating (100 = 100% disease control, 0 = no disease control) [2] | Test B rating (100 = 100% disease control, 0 = no disease control) (Alternaria solani; 200 ppm test suspension) | Test B rating (100 = 100% disease control, 0 = no disease control) (Alternaria solani; 40 ppm test suspension (asterisk)) | pest or weed control at 200 ppm (Alternaria solani; Alternaria solani, 168 h, 200 ppm test suspension, read-out: Test B rating (100 = 100% disease control, 0 = no disease control)) | pest or weed control at 200 ppm ([1]; Puccinia recondita, 168 h, read-out: Test H rating (100 = 100% disease control, 0 = no disease control)) | pest or weed control at 200 ppm ([3]; Puccinia recondita, 96 h, read-out: Test G rating (100 = 100% disease control, 0 = no disease control)) | pest or weed control at 200 ppm (Botrytis cinerea; Botrytis cinerea, 120 h, read-out: Test A rating (100 = 100% disease control, 0 = no disease control)) | pest or weed control at 200 ppm (Septoria tritici; Zymoseptoria tritici, 504 h, read-out: Test F rating (100 = 100% disease control, 0 = no disease control)) | pest or weed control at 200 ppm (Septoria nodorum; Parastagonospora nodorum, 264 h, read-out: Test E rating (100 = 100% disease control, 0 = no disease control)) | pest or weed control at 200 ppm ([2]; Blumeria graminis, 168 h, read-out: Test I rating (100 = 100% disease control, 0 = no disease control)) | Test G rating (100 = 100% disease control, 0 = no disease control) [3]
1 | Cc1noc(=O)c(-c2cccc(F)c2)c1-c1ccccc1 [Compound 1] | 0% | 0% | 0% | 0% | 37% | 0% | 0% |  |  |  |  |  |  |  |  |  | 
2 | Cc1noc(=O)c(-c2ccc(Cl)cc2)c1-c1c(F)cccc1F [Compound 2] | 17% | 0% | 0% | 47% | 97% | 0% | 92% |  |  |  |  |  |  |  |  |  | 
3 | Cc1noc(=O)c(-c2c(F)cc(F)cc2F)c1-c1cccc(F)c1 [Compound 5] | 0% | 0% | 16% | 0% |  | 0% | 20% | 54% |  |  |  |  |  |  |  |  | 
4 | Cc1noc(=O)c(-c2c(F)ccc(F)c2F)c1-c1ccc(Cl)cc1 [Compound 6] | 0% | 41% | 0% | 99% |  | 0% | 96% | 99% |  |  |  |  |  |  |  |  | 
5 | Cc1noc(=O)c(-c2c(F)cccc2F)c1-c1ccc(Cl)cc1 [Compound 7] | 0% | 99% | 75% | 100% |  | 0% | 100% | 100% |  |  |  |  |  |  |  |  | 
6 | Cc1noc(=O)c(-c2c(F)cccc2Cl)c1-c1ccc(Cl)cc1 [Compound 8] | 0% | 98% | 52% | 100% |  | 0% | 99% | 99% |  |  |  |  |  |  |  |  | 
7 | Cc1ccc(-c2c(C)noc(=O)c2-c2c(F)cc(F)cc2F)cc1 [Compound 9] | 0% | 96% | 99% | 90% |  | 0% | 96% | 46% |  |  |  |  |  |  |  |  | 
8 | Cc1noc(=O)c(-c2c(F)cc(F)cc2F)c1-c1ccc(Br)cc1 [Compound 10] | 0% | 95% | 90% | 98% |  | 0% | 99% | 100% |  |  |  |  |  |  |  |  | 
9 | Cc1noc(=O)c(-c2c(F)cc(F)cc2F)c1-c1ccc(F)cc1 [Compound 11] | 0% | 98% | 26% | 100% |  | 64% | 100% | 99% |  |  |  |  |  |  |  |  | 
10 | Cc1noc(=O)c(-c2c(F)cc(F)cc2F)c1-c1ccc(C(F)(F)F)cc1 [Compound 12] | 0% | 0% | 0% | 0% |  | 0% | 98% |  | 99* % |  |  |  |  |  |  |  | 
11 | Cc1noc(=O)c(-c2ccc(F)cc2F)c1-c1ccc(Cl)cc1 [Compound 13] | 0% | 91% | 0% | 0% |  | 0% | 99% | 9% |  |  |  |  |  |  |  |  | 
12 | Cc1noc(=O)c(-c2ccc(F)cc2Cl)c1-c1ccc(Br)cc1 [Compound 14] | 0% | 0% | 0% | 0% |  | 0% | 0% | 5% |  |  |  |  |  |  |  |  | 
13 | Cc1noc(=O)c(-c2c(F)cccc2F)c1-c1ccc(Br)cc1 [Compound 15] | 0% | 91% | 0% | 0% |  | 0% | 98% | 96% |  |  |  |  |  |  |  |  | 
14 | COc1cc(OC)cc(-c2c(-c3c(F)cc(F)cc3F)c(C)oc(=O)c2C)c1 [Compound 55, 4-(3,5-dimethoxyphenyl)-3,6-dimethyl-5-(2,4,6-trifluorophenyl)-2H-pyran-2-one] |  |  |  |  |  |  |  |  |  | 100% | 100% | 100% | 77% | 100% | 99% | 100% | 
15 | COc1cc(OC)cc(-c2cc(=O)oc(C)c2-c2ccc(F)cc2Cl)c1 [Compound 56] |  | 100% |  | 94% | 100% | 99% | 100% | 99% |  |  |  |  |  |  |  |  | 100%
